Assay [1] addresses T1, Vasopressin V2 receptor (Homo sapiens, UniProt P30518). As to the kind of experiment: Displacement of [3H]AVP from human V2 receptors expressed in HEK293 cells. The format is cell-based. For orientation: In a radioligand displacement assay an active substance lowers the binding of a labelled ligand.
Assay [2] addresses T1, Vasopressin V2 receptor. As to the kind of experiment: Compound was assessed for their ability to displace [3H]AVP from human V2 receptors transfected into HEK293 cells at 0.1 uM concentration. The format is cell-based.
Assay [3] has as its target T1, Vasopressin V2 receptor. Kind of assay: Inhibitory activity of the human V2 receptor was assessed by the accumulation of cAMP in transfected HEK293 cells. The format is functional, cell-based.
For assay [4], the target named is Vasopressin V2 receptor (Rattus norvegicus, UniProt Q00788). As to the kind of experiment: Binding affinity towards V2 receptor.
Chain of Vasopressin V2 receptor (Rattus norvegicus, UniProt Q00788) (Q00788 whole entry): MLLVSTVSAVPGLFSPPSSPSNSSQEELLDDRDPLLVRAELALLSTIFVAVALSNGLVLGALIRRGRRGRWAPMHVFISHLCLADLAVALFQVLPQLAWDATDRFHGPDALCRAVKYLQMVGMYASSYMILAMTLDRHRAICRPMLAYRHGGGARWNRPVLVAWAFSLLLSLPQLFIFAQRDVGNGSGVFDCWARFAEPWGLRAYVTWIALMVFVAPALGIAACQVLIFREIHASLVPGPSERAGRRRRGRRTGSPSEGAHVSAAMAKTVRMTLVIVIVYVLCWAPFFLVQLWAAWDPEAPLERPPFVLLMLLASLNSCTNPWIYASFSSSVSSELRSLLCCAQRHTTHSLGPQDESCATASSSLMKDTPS
The target of another assay is Vasopressin V1a receptor (Homo sapiens, UniProt P37288). Kind of assay: Binding affinity towards VIa receptor.
Chain of Vasopressin V1a receptor (P37288 whole entry): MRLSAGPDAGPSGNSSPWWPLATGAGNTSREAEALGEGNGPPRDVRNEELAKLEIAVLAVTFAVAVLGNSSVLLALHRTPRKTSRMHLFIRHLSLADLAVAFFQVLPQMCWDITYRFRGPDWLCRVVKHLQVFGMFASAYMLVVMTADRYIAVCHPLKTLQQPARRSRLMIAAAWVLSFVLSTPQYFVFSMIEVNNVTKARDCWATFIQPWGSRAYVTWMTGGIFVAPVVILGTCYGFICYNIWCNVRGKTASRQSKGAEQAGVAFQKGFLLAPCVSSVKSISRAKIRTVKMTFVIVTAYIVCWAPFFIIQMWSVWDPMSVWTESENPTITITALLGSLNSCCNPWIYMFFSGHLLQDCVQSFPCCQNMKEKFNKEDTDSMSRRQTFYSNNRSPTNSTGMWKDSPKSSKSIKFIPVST

Some results are limits rather than exact numbers.

In general, IC50 refers to the concentration that gives 50% inhibition. Low readings indicate greater potency in that assay, high ones weaker potency in that assay. For orientation: inhibition means the percentage by which the read-out fell short of the control. A low value points to little suppression.

T1 sequence (P30518 whole entry): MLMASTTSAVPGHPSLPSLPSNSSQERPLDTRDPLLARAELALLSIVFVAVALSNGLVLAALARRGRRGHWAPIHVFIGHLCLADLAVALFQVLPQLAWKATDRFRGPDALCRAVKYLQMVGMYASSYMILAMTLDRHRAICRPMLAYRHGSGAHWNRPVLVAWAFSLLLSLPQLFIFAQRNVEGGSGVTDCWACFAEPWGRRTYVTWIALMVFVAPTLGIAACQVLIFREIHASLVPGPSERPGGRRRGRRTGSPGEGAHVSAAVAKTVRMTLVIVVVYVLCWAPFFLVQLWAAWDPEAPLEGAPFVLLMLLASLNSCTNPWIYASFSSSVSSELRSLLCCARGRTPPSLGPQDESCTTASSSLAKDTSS

Consider `O=C(Nc1ccc(C(=O)N2CCCc3c(S(=O)(=O)O)[nH]c4cccc2c34)cc1)c1ccccc1-c1ccccc1`, for which the IC50 at Vasopressin V2 receptor [1] is 13 nM. On the same count and under the same terms, the result for `O=C(Nc1ccc(C(=O)N2CCCC3C(=O)Nc4cccc2c43)cc1)c1ccccc1-c1ccccc1` (configuration not stated) reads 8 nM. As to `Cc1ccccc1C(=O)Nc1ccc(C(=O)N2CCCc3c[nH]c4cccc2c34)cc1`, the inhibition on Vasopressin V2 receptor [2] is < 30%. `Cc1ccc(F)cc1C(=O)Nc1ccc(C(=O)N2CCCc3c[nH]c4cccc2c34)cc1` returned an IC50 on Vasopressin V2 receptor [1] of 190 nM. `O=C(Nc1ccc(C(=O)N2CCCc3c[nH]c4cccc2c34)c(Cl)c1)c1ccccc1-c1ccccc1`: the half-maximal inhibitory concentration (IC50) on Vasopressin V2 receptor [1] is 50 nM; at Vasopressin V2 receptor [3], 330 nM. The compound `Cc1c(F)cccc1C(=O)Nc1ccc(C(=O)N2CCCc3c[nH]c4cccc2c34)cc1` had a half-maximal inhibitory concentration (IC50) on Vasopressin V2 receptor [1] of 180 nM. Regarding `Cc1ccc(-c2ccccc2C(=O)Nc2ccc(C(=O)N3CCCc4c[nH]c5cccc3c45)cc2)cc1`, the half-inhibitory concentration (IC50) amounted to 11 nM at Vasopressin V2 receptor [1] and 70 nM on Vasopressin V2 receptor [3]. For the compound `O=C(Nc1ccc(C(=O)N2CCCc3c[nH]c4cccc2c34)cc1)c1ccccc1-c1ccccc1`, the concentration for half-maximal inhibition (IC50) worked out at 20 nM on Vasopressin V2 receptor [1], 1 nM at Vasopressin V2 receptor [4], 70 nM against Vasopressin V2 receptor [3] and 3100 nM at Vasopressin V1a receptor.

In the case of `O=C(Nc1ccc(C(=O)N2CCCc3c(Cl)[nH]c4cccc2c34)cc1)c1ccccc1-c1ccccc1`, the IC50 at Vasopressin V2 receptor [1] was 44 nM. For the compound `Cc1ccc(F)cc1C(=O)Nc1ccc(C(=O)N2Cc3cccn3Cc3ccccc32)c(Cl)c1` [LIXIVAPTAN], the 50% inhibitory concentration (IC50) against Vasopressin V2 receptor [3] was 91 nM. As to `Cc1ccc(-c2ccccc2C(=O)Nc2ccc(C(=O)N3CCCc4cn(Cc5ccccc5)c5cccc3c45)cc2)cc1`, on Vasopressin V2 receptor [2], the inhibition is < 30%.

With `CC(=O)n1cc2c3c(cccc31)N(C(=O)c1ccc(NC(=O)c3ccccc3-c3ccc(C)cc3)cc1)CCC2`, at Vasopressin V2 receptor [1], the IC50 worked out at 170 nM. Same read-out and setting: the figure for `CCOC(=O)Cn1cc2c3c(cccc31)N(C(=O)c1ccc(NC(=O)c3ccccc3-c3ccc(C)cc3)cc1)CCC2` is 550 nM; for `Cc1ccc(-c2ccccc2C(=O)Nc2ccc(C(=O)N3CCCc4cn(C)c5cccc3c45)cc2)cc1` it is 210 nM; for `O=C(Nc1ccc(C(=O)N2CCCc3c[nH]c4cccc2c34)cc1Cl)c1ccccc1-c1ccccc1` it is 15 nM. For the compound `O=C(Nc1ccc(C(=O)N2CCCc3c(S(=O)(=O)O)[nH]c4cccc2c34)cc1Cl)c1ccccc1-c1ccccc1`, the IC50 on Vasopressin V2 receptor [1] worked out at 12 nM.

With `CCCn1cc2c3c(cccc31)N(C(=O)c1ccc(NC(=O)c3ccccc3-c3ccc(C)cc3)cc1)CCC2`, the inhibition on Vasopressin V2 receptor [2] was < 30%.

The values above are taken from ChEMBL document CHEMBL1136603, “Synthesis and biological evaluation of novel indoloazepine derivatives as non-peptide vasopressin V2 receptor antagonists” (Bioorg Med Chem Lett, 2003).
